# Data: patent US6124275A, “Methods and compositions for controlling a pest population” (priority 1999, dated 2000)
# Read-outs that look alike come from different tables or passages of the source.
# How the values were obtained:
# [1] = test system: melon aphids; test: whole plant or invertebrate; conditions: Aphis gossypii, topical, read-out: Total Mortality
# [2] = test system: E. hirsti (chiggar mite) larvae; conditions: cloth treated with ethanol solution of 5% benzyl benzoate, cited from earlier work
# [3] = test system: roses; conditions: in vivo
# Description: Both formulations were applied via direct contact spray.
# Both were applied via direct contact spray.
# [4] = test system: two-spotted spider mites; conditions: words
# [5] = test system: chrysanthemums; parameters: species or system chrysanthemum; conditions: in vivo
# Description: Both formulations were applied via direct contact spray. […] The phytotoxicity of plants were also observed.
# [6] = test system: western flower thrips; test: whole plant or invertebrate; conditions: Frankliniella occidentalis, topical, 72 h, read-out: highest observed mortality
# [7] = test system: silverleaf whiteflies; conditions: for highest observed mortality: silverleaf whitefly, in vivo, topical or ocular, 120 h
# [8] = test system: Western flower thrips (larvae and pupae); conditions: 1.0% BB, 0.1% T80, words
# [9] = test system: rats; conditions: Merck Index; cited from earlier work
# [10] = test system: western flower thrips; conditions: words
# [11] = test system: melon aphids; test: whole plant or invertebrate; conditions: Aphis gossypii, topical, 24 h, read-out: Total Mortality
# [12] = test system: human head lice eggs; conditions: 22.5 g as a thin layer on the eggs; cited from earlier work
# [13] = test system: melon aphids; conditions: words
# [14] = test system: melon aphids; conditions: 1.5% BB, 0.3% T80; words
# [15] = test system: housefly; test: whole plant or invertebrate; conditions: Musca domestica, topical, 24 h, read-out: highest observed mortality
# Description: (§1) All experiments were conducted with a hand held sprayer at an application rate equivalent to 100 gallons/acre. […] Specific treatment conditions were as follows: pharaoh ants were contained in paper cups with a cloth mesh enclosure at the top and sprayed from a distance of 12 inches; honey bees were contained in wire mesh cages with Petri dishes as end enclosures and sprayed from a distance of 24 inches; German cockroaches and houseflies were contained in Peet-Grady chambers and sprayed from a distance of 24 inches; and cat fleas were delivered onto carpet disks and sprayed from an un-reported distance.
# [16] = test system: cat flea; test: Pesticidal efficacy, cat flea (Example 8); conditions: for mortality at 5 wt %: Ctenocephalides felis, topical, 24 h, read-out: highest observed mortality
# Description: as §1
# (§2) In evaluating efficacy against structural pests, BS was tested on pharaoh ant and cat flea at two concentrations, 1 wt % and 5 wt %.
# [17] = test system: two-spotted spider mites; conditions: 1.0% BB, 0.1% T80; words
# [18] = test system: pharaoh ant; conditions: for highest observed mortality: in vivo, topical or ocular, 24 h
# Description: as §1, §2
# [19] = test system: leafminer; conditions: for highest observed mortality: leafminer, in vivo, topical or ocular, 480 h
# [20] = test system: honey bee; test: Pesticidal efficacy, honey bee (Example 8); assay type: in vivo; conditions: Apis mellifera, topical, T20 carrier, 24 hours post application, read-out: highest observed mortality
# [21] = test system: Western flower thrips (larvae and pupae); test: whole plant or invertebrate; conditions: Frankliniella occidentalis, topical, read-out: Total Mortality
# [22] = test system: German cockroach; test: whole plant or invertebrate; conditions: Blattella germanica, topical, 24 h, read-out: highest observed mortality
# Description: as §1
# [23] = test system: melon aphid; test: Pesticidal efficacy, melon aphid (Example 8); conditions: for mortality at 1 % / mortality at 5 %: Aphis gossypii, topical, read-out: highest observed mortality
# Description: (§3) Plants (chrysanthemum and minirose) were infested with melon aphid and two-spotted spider mites and sprayed to run-off using a standard 250 ml hand-held sprayer. Mortality was recorded at 24 HPA and 48 HPA.
# [24] = test system: melon aphids; test: whole plant or invertebrate; conditions: Aphis gossypii, topical, 24 h, read-out: Total Mortality; remark: listed apart in the source
# [25] = test system: melon aphids; conditions: 1.5% BB, 0.5% T80; words
# [26] = until 25 wt % concentration; cited from earlier work
# [27] = test system: Argentine ant; test: Pesticidal efficacy, Argentine ant (Example 8)
# [28] = test system: melon aphids; test: whole plant or invertebrate; assay type: in vivo, Aphis gossypii; conditions: for efficacy against melon aphids: 1.0% BS, 0.2% T20, words
# [29] = test system: two-spotted spider mites; assay type: in vivo, Tetronmychua urticae; conditions: for efficacy against two-spotted spider mites: 1.0% BS, 0.2% T20, words
# [30] = test system: plants; test: Phytotoxicity to plants (general statement); assay type: in vivo; conditions: words
# [31] = test system: Argentine ants; test: Repellency to Argentine ants; assay type: in vivo, Argentine ant; conditions: at one week
# [32] = test system: arthropods; test: Insecticidal activity on arthropods (general statement); assay type: in vivo; conditions: words
# [33] = test system: two-spotted spider mite; test: Pesticidal efficacy, two-spotted spider mite (Example 8); conditions: for mortality at 5 %: Tetranychus urticae, topical, read-out: highest observed mortality
# Description: as §3
# [34] = test system: American cockroach; test: whole plant or invertebrate; conditions: Periplaneta americana, topical, read-out: highest observed mortality
# Description: (§4) The objective of the experiment was to evaluate the general effectiveness of ES in an emulsion formulation against the American cockroach.
# (§5) An emulsion of ES (Sigma) was prepared at 5.0 wt % ES and 1.0 wt % T20. A 1 wt % T20 solution was also prepared as a formula blank treatment. A negative control of no treatment was included in the bioassay. The three treatments were applied to three replications of 4 cockroaches each.
# (§6) The treatments were applied as sprays using a standard hand held 250 ml sprayer. For each direct treatment, 4 cockroaches were each sprayed to run-off on filter paper fitted to the bottom of a 1 liter stainless steel jar. Cockroaches were then transferred to 250 ml flasks for observation. For residuality/reintroduction bioassays, the treated filter papers were removed from direct treatment spray jars and allowed to air dry. After drying, the filter papers were replaced in jars and cockroaches introduced for observation.
# [35] = test system: American cockroach; conditions: for Time (to 100% lethality): 5.0 wt % ES, 1.0 wt % T20
# Description: as §4, §5, §6
# [36] = test system: cladosporium; test: Evaluation against the fungus cladosporium; conditions: 1 wt % formulation
compound,measurement,setting,value
"O=C(OCc1ccccc1)c1ccccc1 [BB, benzyl benzoate]",mortality at 1.5 %,[1],85%
same,knockdown of test larvae,[2]; <3 minutes,100%
same,time to 100% knockdown,[2],< 3 min
same,phytotoxicity observed on the roses,[3],no phytotoxicity observed
same,efficacy against two spotted spider mites,"[4]; 2.5% BB, 0.1% T80",clearly indicate efficacy of the BB formulation against two spotted spider mites
same,controlling spider mites,[4]; summary of Examples 1-7,"effective for controlling aphids, thrips, and spider mites"
same,phytotoxicity of chrysanthemums,[5],None of the treatments resulted in phytotoxicity of chrysanthemums
same,phytotoxicity to chrysanthemums,[5],no phytotoxicity to chrysanthemums
same,"phytotoxicity, chrysanthemum",[5],"no phytotoxicity for 5 days, only the lowest leaves showed two necrotic spots but no serious damage"
same,"phytotoxicity, chrysanthemums",[5],no phytotoxicity
same,mortality at 0.25 %,[6],14%
same,highest observed mortality,[7],39%
same,"dose response, silverleaf whiteflies",[7]; words,Good dose response
same,efficacy against Western flower thrips,[8],clear efficacy against Western flower thrips
same,efficacy against Western flower thrips,[8]; listed as benzyl benzoate,"effective for controlling aphids, thrips"
same,LD50,[9],"1,830 mg/Kg"
same,"dose response, western flower thrips",[10],all except for western flower thrips
same,mortality at 2.5 %,[11],90.3%
same,killing human head lice eggs,[12],killing human head lice eggs
same,efficacy against melon aphids,"[13]; 2.5% BB, 0.1% T80",clear efficacy against melon aphids
same,controlling aphids,[13]; summary of Examples 1-7,effective for controlling aphids
same,efficacy against melon aphids,[14],clear efficacy against melon aphids
same,mortality at 0.1 %,[15],35%
same,mortality at 5 wt %,[16],93%
same,efficacy against two-spotted spider mites,[17],indicate efficacy of the benzyl benzoate formulation against two-spotted spider mites
same,highest observed mortality,[18],21%
same,highest observed mortality,[19],24%
same,"dose response, leafminer",[19]; words,Good dose response
same,mortality at 0.3 %,[20]; 0.3 wt % AC,68%
same,mortality at 1 %,[21],85.7%
same,mortality at 1 %,[22],0%
same,mortality at 1 %,[23],74%
same,"dose response, melon aphid",[23]; words,Good dose response
same,mortality at 1.5 %,[24],89.4%
same,effect on melon aphids,[25],"killed the aphids in their tracks; the aphids did not desiccate, instead appeared preserved"
"O=C(OCc1ccccc1)c1ccccc1O [BS, benzyl salicylate]",contact dermatitis,[26],does not cause contact dermatitis (until 25 wt % concentration)
same,highest observed mortality,"[27]; 1.0 wt % AC, T20 carrier",99%
same,LC100 at higher concentrations,"[27]; 2, 3 and 5 wt %, words","held at 2 wt %, 3 wt % and 5 wt %"
same,LC100,[27]; AC concentration,1 wt %
same,activity on Argentine ants,[27]; words,excellent activity
same,"dose response, Argentine ants",[27]; words,good dose response
same,efficacy against melon aphids,[28],clearly indicate the efficacy of BS against melon aphids
same,efficacy against melon aphids,[28]; listed as benzyl salicylate,effective in controlling aphids
same,mortality at 1 %,"[28]; Aphis gossypii, topical, read-out: Total Mortality",89.3%
same,"phytotoxicity, chrysanthemums",[5],"severe damage from leaf tips moving inwards, and some leaf damage beginning from bottom leaves and moving upwards, with the newest leaves remaining unaffected"
same,mortality at 0.5 %,[6],36%
same,highest observed mortality,[7],70%
same,efficacy against two-spotted spider mites,[29],clearly indicate the efficacy of BS against melon aphids and two-spotted spider mites
same,efficacy against two-spotted spider mites,[29]; listed as benzyl salicylate,effective in controlling aphids and spider mites
same,Total Mortality,"[29]; in vivo, topical or ocular",86.9%
same,phytotoxicity,[30],can be phytotoxic to some plants
same,mortality at 0.1 %,[15],47%
same,effective on cat flea,"[16]; 5 wt %, words",effective on both pests
same,mortality at 5 wt %,[16],100%
same,effective on pharaoh ant,"[18]; 5 wt %, words",effective on both pests
same,highest observed mortality,[18],89%
same,highest observed mortality,[19],25%
same,mortality at 1 %,[20]; 1.0 wt % AC,78%
same,repellant to Argentine ants,[31],repellant to Argentine ants at one week
same,mortality at 1.1 %,[22],0%
same,insecticidal activity,[32],clearly shown to be insecticidal
same,mortality at 1 %,[23],98%
same,"dose response, melon aphid",[23]; words,activity increased with AC concentration only on melon aphid
"CCOC(=O)c1ccccc1O [ES, ethyl salicylate]",mortality at 5 %,[33],90%
same,mortality at 5 wt %,[34],100%
same,lethality on American cockroach,"[35]; 5 wt %, direct spray, words",lethal
same,Time (to 100% lethality),[35]; Direct spray,3 to 7 min
same,Time (to 100% lethality),[35]; Residuality/Reintroduction,60 to 120 min
same,Lethality,"[35]; american cockroach, in vivo",100%
same,"time, lethal to all test cockroaches",[35]; both direct spray and residual/reintroduction,≤ 2 h
same,mortality at 5 %,[23],90%
CC(=O)OCc1ccccc1 [benzyl acetate],mortality at 5 %,[33],≥ 90%
same,activity on 2-spotted spider mites,[33]; words,high activity
same,phytotoxicity,[30],non-phytotoxic
same,mortality at 5 %,[23],≥ 90%
same,activity on aphid,[23]; words,high activity
CCCCOC(=O)c1ccccc1C(=O)OCc1ccccc1 [benzyl butyl phthalate],mortality at 5 %,[33],50%
same,mortality at 5 %,[23],70%
COC(=O)c1ccccc1O [methyl salicylate],mortality at 5 %,[33],90%
same,mortality at 5 %,[23],90%
O=C(Oc1ccccc1)c1ccccc1O [phenyl salicylate],effect against the fungus cladosporium,[36],effective at both inhibiting fungal growth and at killing the fungus
same,mortality at 5 %,[33],90%
same,mortality at 5 %,[23],90%
